How the values were obtained:
[1] = test system: EMT-6 cells derived from a murine mammary sarcoma; test: EMT-6 implanted tumor mouse model: PDT with EtNBS with or without timed prolactin (Examples 1-2); format: in vivo, Balb/c mice
Protocol: Adult (6-7 wk old) male Balb/c mice were subcutaneously injected with EMT-6 cells derived from a murine mammary sarcoma (1.7×10^6 cells) on the hind quarter and were divided into four groups (n=10 per group) and treated as follows: Group 1 (D+L) received photodynamic therapy at 14 days after tumor inoculation. Photodynamic therapy consisted of subcutaneously injecting a benzophenothiazine photosensitizer (EtNBS, FIG. 7)(7.5 mg/kg of body weight) and 3 hrs later irradiating the tumor with 652 nm light at a power density of 150 mW/cm2 and a total energy of 100 J/cm^2. Group 2 (PRL) received intraperitoneal ovine prolactin (20 mcg/mouse) at 10 hours after light onset starting at 7 days after tumor inoculation and continuing for 14 days. Group 3 (D+L+PRL) received both PDT (as described above) and prolactin (as described above). Group 4 (CON) remained untreated (control). Fourteen days following PDT tumor volume was determined in all animals.
Example 1 was repeated with different PDT power density and energy characteristics (for groups 2 and 3) which better optimize the PDT effect. […] Under these conditions, tumor “cure” (tumor-free for at least 90 days) of 4-8 mm diameter tumors can be achieved in 70-100% of the cases largely dependent upon the tumor size at the time of PDT. However, if intraperitoneal prolactin administration (20 mcg/mouse/day at 10 hours after light onset) is added to PDT treatment (starting from the day of tumor cell inoculation), then the tumor cure rate is 100%.
The typical response observed using PDT alone with the PDT parameters employed are (in sequence): 1) an inflammation of the photoirradiated spot encompassing the tumor within about 30 minutes which increases to a maximum inflammation at about 3-5 hours; 2) inflammation completely subsides in 48-72 hours leaving noticeable tumor which takes 14 days to regress completely. Eschar formation occurs at 24-48 hours.
At 4-7 days the irradiated area has healed completely. This response cannot be obtained with PDT or prolactin alone.

[2] = test system: EMT-6 cells; test: EMT-6 implanted tumor mouse model: PDT with EtNBS with or without bromocriptine (Example 4); format: in vivo, Balb/c mice; conditions: PDT alone (EtNBS 7.5 mg/kg sc, 652 nm, 50 mW/cm2, 100 J/cm^2)
Protocol: Adult (6-7 wk old) male Balb/c mice are subcutaneously injected with EMT-6 cells (1.7×10^6 cells) on the hind quarter and are divided into four groups (n=10 per group) and are treated as follows: group 1 receives photodynamic therapy (PDT) at 14 days after tumor inoculation. PDT consists of subcutaneously injecting a benzophenothiazine photosensitizer (EtNBS)(7.5 mg/kg of body weight) and 3 hrs later irradiating the tumor with 652 nm light at a power density of 50 mW/cm2 and a total energy of 100 J/cm^2. Group 2 receives intraperitoneal bromocriptine (50 mcg/mouse) at 0 hours after light onset starting at 7 days after tumor inoculation and continuing for 14 days. Group 3 receives both PDT (as described above) and intraperitoneal bromocriptine (as described above). Group 4 remains untreated (control). Fourteen days following PDT tumor volume is determined in all animals.

[3] = test system: EMT-6 cells; test: EMT-6 implanted tumor mouse model: PDT with EtNBS with or without melatonin (Example 5); format: in vivo, Balb/c mice
Protocol: Adult (6-7 wk old) male Balb/c mice are injected subcutaneously with EMT-6 cells (1.7×10^6 cells) on the hind quarter and are divided into four groups (n=10 per group) and are treated as follows: group 1 receives photodynamic therapy (PDT) at 14 days after tumor inoculation. PDT consists of subcutaneously injecting a benzophenothiazine photosensitizer (EtNBS)(7.5 mg/kg of body weight) and 3 hrs later irradiating the tumor with 652 nm light at a power density of 50 mW/cm^2 and a total energy of 100 J/cm^2. Group 2 receives intraperitoneal melatonin (8 mg/kg) at 10 hours after light onset starting at 7 days after tumor inoculation and continuing for 14 days. Group 3 receives both PDT (as described above) and intraperitoneal melatonin (as described above). Group 4 remains untreated (control). Fourteen days following PDT tumor volume is determined in all animals.

[4] = test system: EMT-6 cells; test: EMT-6 implanted tumor mouse model: PDT with EtNBS with or without bromocriptine and melatonin (Example 6); format: in vivo, Balb/c mice
Protocol: Adult (6-7 wk old) male Balb/c mice are subcutaneously injected with EMT-6 cells (1.7×10^6 cells) on the hind quarter and are divided into four groups (n=10 per group) and are treated as follows: group 1 receives photodynamic therapy (PDT) at 14 days after tumor inoculation. PDT consists of subcutaneously injecting a benzophenothiazine photosensitizer (EtNBS)(7.5 mg/kg of body weight) and 3 hrs later irradiating the tumor with 652 nm light at a power density of 50 mW/cm^2 and a total energy of 100 J/cm^2. Group 2 receives intraperitoneal melatonin (8 mg/kg) at 10 hours after light onset and intraperitoneal bromocriptine (50 mcg/mouse) at 0 hours after light onset starting at 7 days after tumor inoculation and continuing for 14 days. Group 3 receives both PDT (as described above) and intraperitoneal bromocriptine and intraperitoneal melatonin (as described above). Group 4 remains untreated (control). Fourteen days following PDT tumor volume is determined in all animals.

[5] = in vivo; cited from earlier work
[6] = test system: EMT-6 cells derived from a murine mammary sarcoma; test: EMT-6 implanted tumor mouse model: PDT with Dye 4-115 with or without timed prolactin (Example 3); format: in vivo, Balb/c mice
Protocol: Adult (6-7 wk old) male Balb/c mice are subcutaneously injected with EMT-6 cells derived from a murine mammary sarcoma (1.7×10^6 cells) on the hind quarter and are divided into four groups (n=10 per group) and are treated as follows: group 1 receives photodynamic therapy (PDT) at 14 days after tumor inoculation. PDT consists of intravenously injecting a benzophenothiazine photosensitizer (Dye 4-115)(2.5 mg/kg of body weight) and 1 hr later irradiating the tumor with a broad wavelength light source (600-700 nm) at a power density of 50 mW/cm^2 and a total energy of 100 J/cm^2. Group 2 receives intraperitoneal ovine prolactin (20 mcg/mouse) at 10 hours after light onset starting at 7 days after tumor inoculation and continuing for 14 days. Group 3 receives both PDT (as described above) and prolactin (as described above). Group 4 remains untreated (control). Fourteen days following PDT tumor volume is determined in all animals.

[7] = test system: tumor burden; test: Timed prolactin injections in tumor bearing mice; format: in vivo; conditions: circadian rhythms synchronized with a defined photoperiod; versus tumor bearing mice without timed prolactin injections
[8] = test system: body fat stores; conditions: cited from earlier work
[9] = test system: immune responses; conditions: timed daily administration within a specific window of time; no effect outside it; cited from earlier work
[10] = PDT alone (EtNBS 7.5 mg/kg sc, 652 nm, 50 mW/cm^2, 100 J/cm^2)
[11] = ip prolactin added to EtNBS PDT
[12] = ip prolactin added to Dye 4-115 PDT

Molecule: CCNc1cc2sc3cc(=[N+](CC)CC)ccc-3nc2c2ccccc12.[Cl-] [EtNBS]
- tumor "cure" (tumor-free for at least 90 days) ([1]; PDT alone (EtNBS 7.5 mg/kg sc, 652 nm, 50 mW/cm^2, 180 J), 4-8 mm diameter tumors): 70-100%
- onset of inflammation of the photoirradiated spot ([1]; PDT alone (EtNBS)): ≤ 30 min
- time for noticeable tumor to regress completely ([1]; PDT alone (EtNBS)): 14 days
- time of eschar formation ([1]; PDT alone (EtNBS)): 24 to 48 h
- time of maximum inflammation ([1]; PDT alone (EtNBS)): 3 to 5 h
- time until inflammation completely subsides ([1]; PDT alone (EtNBS)): 48 to 72 h
- tumor volume fourteen days following PDT [2]: significantly reduced
- tumor volume fourteen days following PDT [3, 10]: significantly reduced
- tumor volume fourteen days following PDT [4, 10]: significantly reduced

Molecule: COc1ccc2[nH]cc(CCNC(C)=O)c2c1 [melatonin]
- tumor volume fourteen days following PDT ([3]; EtNBS PDT plus ip melatonin): significantly reduced or entirely eradicated
- tumor volume fourteen days following PDT ([3]; ip melatonin alone, 8 mg/kg at 10 hours after light onset for 14 days): significantly reduced
- effect on growth of tumors ([3]; mice, melatonin at the time when melatonin levels are peaking in healthy mice): potent inhibitory effect on growth of tumors
- tumor volume fourteen days following PDT ([4]; EtNBS PDT plus ip bromocriptine and ip melatonin): significantly reduced or entirely eradicated
- tumor volume fourteen days following PDT ([4]; ip melatonin 8 mg/kg at 10 hours plus ip bromocriptine 50 mcg/mouse at 0 hours after light onset, no PDT): significantly reduced

Molecule: hematoporphyrin [HPD]
- dermal photosensitization due to prolonged retention in the skin [5]: can persist for months

B1: prolactin: hormone; prolactin enhancer, given as intraperitoneal ovine prolactin (protein, UniProt P01240 31-229, looked up)
Prolactin: TPVCPNGPGNCQVSLRDLFDRAVMVSHYIHNLSSEMFNEFDKRYAQGKGFITMALNSCHTSSLPTPEDKEQAQQTHHEVLMSLILGLLRSWNDPLYHLVTEVRGMKGVPDAILSRAIEIEEENKRLLEGMEMIFGQVIPGAKETEPYPVWSGLPSLQTKDEDARHSAFYNLLHCLRRDSSKIDTYLKLLNCRIIYNNNC
- tumor cure rate ([1]; ip prolactin 20 mcg/mouse/day at 10 hours after light onset from day of inoculation, added to EtNBS PDT (50 mW/cm^2, 180 J)): 100%
- time at which the irradiated area has healed completely [1, 11]: 4 to 7 days
- time to complete tumor eradication [1, 11]: ≤ 24 h
- time to severe eschar formation [1, 11]: ≤ 24 h
- treated animals exhibiting severe eschar formation [1, 11]: 100%
- tumor cure rate ([1]; mouse models, prolactin at the appropriate time interval combined with PDT): ~100%
- treated animals exhibiting severe eschar formation ([6]; ip ovine prolactin 20 mcg/mouse at 10 hours after light onset added to Dye 4-115 PDT): 100%
- time at which the irradiated area will heal completely [6, 12]: 4 to 7 days
- time to complete tumor eradication [6, 12]: ≤ 24 h
- time to severe eschar formation [6, 12]: ≤ 24 h
- tumor burden [7]: decreased tumor burden
- increase in body fat levels ([8]; prolactin injections at midday of a 16-hour daily photoperiod): 3 fold
- reduction of fat stores ([8]; prolactin injections given early in the photoperiod): 50%
- effect on immune function [9]: immunostimulatory effect

— patent US20040102383A1, “Growth inhibition and eradication of solid tumors using neuroendocrine resetting therapy and photodynamic therapy” (priority 1996, published 2004)
